Test results published in publication PMC8124774, “Tuning Anti-Biofilm Activity of Manganese(II) Complexes: Linking Biological Effectiveness of Heteroaromatic Complexes of Alcohol, Aldehyde, Ketone, and Carboxylic Acid with Structural Effects and Redox Activity” (International Journal of Molecular Sciences, 2021).
Several values for one entry are separate records, joined by “and”; a condition that tells them apart may be missing. Equal entries are not always repeated. Where two headings read alike, the source gives them in different places.

Key:
[1] = tested on: Staphylococcus aureus ATCC 6538P; experiment: broth microdilution MIC, S. aureus; type: cell-based
Procedure: (§1) The antimicrobial activities of the heteroaromatic ligands, Mn(II) complexes, and commercially available drug streptomycin were tested against standard bacterial strains: Staphylococcus aureus ATCC 6538P, Escherichia coli ATCC 8739, Pseudomonas aeruginosa PAO1 (biofilm model strain), and Pseudomonas aeruginosa LES B58 (clinical isolate). The P. aeruginosa PAO1 and LES B58 isolates were derived from the International Pseudomonas aeruginosa Reference Panel (http://bccm.belspo.be/about-us/bccm-lmg, accessed on 30 March 2021).
(§2) All bacteria species were cultivated in trypticase soy broth (TSB) medium (Biocorp, Warsaw, Poland) for 18 h at 37 °C with shaking (160 rpm). Overnight cultures of bacteria were diluted 1:100 into fresh TSB medium and then placed in each of the 96 wells of a microtiter transparent plate (Greiner, Monroe, NC, USA). The manganese(II) complexes—[Mn-pyOH-SO4]n, Mn-imCHO-NO3, Mn-imCHO-Cl, Mn-dipyCO-NO3—and the ligands—pyOH, pyCOOH—were prepared by dissolving compounds in distilled water. […] The starting stock solution was of 2-mM concentration.
(§3) The quantitative assay of the antibacterial activity was performed by the broth microdilution method, in 96-well microtiter plates, in order to establish the minimum inhibitory concentration (MIC). To this purpose, serial two-fold dilutions of the compounds ranging between 1 and 0.0625 mM were made. The details of the experiment were presented in our previous paper.

[2] = tested on: Escherichia coli ATCC 8739; experiment: broth microdilution MIC, E. coli; type: cell-based
Procedure: as §1, §2, §3

[3] = tested on: P. aeruginosa PAO1 biofilm; experiment: biofilm formation, crystal violet staining assay; type: cell-based, Pseudomonas aeruginosa; conditions: for % Inhibit. Biofilm (0.25 mM) / % Inhibit. Biofilm (0.5 mM): P. aeruginosa PAO1, vs untreated control
Procedure: as §2
To evaluate the effect of the compounds on P. aeruginosa biofilm formation, a crystal violet staining assay was used, following previously described protocols. The concentration of the investigated compounds was in the range 0.0625–1 mM. The amount of biofilm formed was determined by measuring the absorbance at λ = 595 nm with the Infinite M200 PRO microplate reader (Tecan, Männedorf, Switzerland). The measurement results, expressed in absorbance units, were converted into percentages to allow the comparison of numerical data obtained in different experiments.

[4] = tested on: Pseudomonas aeruginosa LES B58; experiment: broth microdilution MIC, P. aeruginosa LES B58; type: cell-based
Procedure: as §1, §2, §3

[5] = tested on: Pseudomonas aeruginosa PAO1; experiment: broth microdilution MIC, P. aeruginosa PAO1; type: cell-based; conditions: P. aeruginosa PAO1, planktonic cells
Procedure: as §1, §2, §3

[6] = biological target: T1, catalase from the bovine liver (Bos taurus, UniProt P00432); experiment: catalase activity in the presence of the Mn(II) complexes (absorbance at 240 nm); type: biochemical; conditions: 0.5 mM complex, vs catalase alone
T1 construct: The catalase from the bovine liver solution; purchased Sigma–Aldrich; host or cells: bovine liver
T1 sequence (P00432 2-527 limits assumed): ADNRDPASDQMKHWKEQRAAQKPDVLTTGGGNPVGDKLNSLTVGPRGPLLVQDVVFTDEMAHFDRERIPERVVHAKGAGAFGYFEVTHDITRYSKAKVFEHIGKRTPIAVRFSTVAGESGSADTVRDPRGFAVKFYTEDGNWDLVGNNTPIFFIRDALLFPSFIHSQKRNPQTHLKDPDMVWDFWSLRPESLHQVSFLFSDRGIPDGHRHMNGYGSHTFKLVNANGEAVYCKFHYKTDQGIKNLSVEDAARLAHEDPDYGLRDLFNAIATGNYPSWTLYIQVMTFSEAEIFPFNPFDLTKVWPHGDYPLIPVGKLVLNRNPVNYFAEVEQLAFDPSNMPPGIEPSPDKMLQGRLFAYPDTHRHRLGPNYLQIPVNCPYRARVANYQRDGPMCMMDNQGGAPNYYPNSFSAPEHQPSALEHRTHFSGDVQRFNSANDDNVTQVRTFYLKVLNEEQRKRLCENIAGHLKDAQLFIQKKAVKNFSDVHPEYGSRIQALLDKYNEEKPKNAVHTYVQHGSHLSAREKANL
Procedure: First, the complexes were incubated with the catalase in the presence of a phosphate buffer, and then hydrogen peroxide was added thereto. To study the effect of the manganese complexes on the activity of CAT, its performance, in the presence of similar concentrations of the Mn complexes (0.5 mM), was investigated. The percentage of absorbance reduction over time was recorded at 240 nm. The positive control was the catalase sample in the absence of the Mn(II) complex. Figure 12 illustrates the effect of the Mn(II) complexes on the catalase activity.
The effect of the manganese complexes on the activity of catalase (CAT) was determined using the spectrophotometric method. The decrease in absorbance due to hydrogen peroxide depletion was recorded at 240 nm by the V-780 UV-Vis/NIR spectrophotometer (Jasco, Easton, MD, USA). The tests were performed in a 50-mM potassium phosphate buffer (PBS) at 37 °C, pH = 7.0. The catalase from the bovine liver solution (Sigma–Aldrich, St. Louis, MO, USA, lyophilized powder, ≥10,000 units/mg protein) was prepared in the PBS buffer as an initial dilution of ~1000 units/mL at 37 °C. The hydrogen peroxide solution, approximately 0.03% (w/w), was prepared by dilution in the PBS buffer to achieve the absorbance close to 1 a.u, and the PBS was used as a blank. The manganese complexes were diluted in the PBS buffer to stock the concentration of 1 mM. The mixture of 500 µL of the hydrogen peroxide, 1 µL of the catalase (final 1U of catalase activity), and 500 µL of the manganese complexes, previously incubated in a water bath at 37 °C, was added to a quartz cuvette (10 mm, 1 mL), closed by a cover, and placed in the spectrophotometer. The absorbance readings were performed in 10-s intervals during the first minute of the incubation time at 37 °C. The results were presented as the dependence on the percentage of the absorbance reduction over time.

[7] = tested on: primary human fibroblasts (VH10); experiment: cytotoxicity, MTT test; type: cell-based; conditions: VH10 cells, 24 h, 15–1000 µM
Procedure: Primary human fibroblasts (VH10) were cultured at 37 °C in a humidified 5% CO2 atmosphere in plastic dishes in Dulbecco’s modified eagle medium (DMEM) supplemented with 10% heat inactivated fetal calf serum, 2 mM of l-glutamine, and antibiotics (100 units/mL penicillin and 100 µg/mL streptomycin). Cytotoxic properties of manganese complexes were measured by EZcount^TM MTT cell assay kit (HiMedia Laboratories Pvt., Ltd., Mumbai, India) in accordance with the manufacturer’s instructions. Cells were seeded into a 96-well plate and incubated with manganese complexes in the concentration range of 15–1000 µM for 24 h at 37 °C in a humidified atmosphere of 5% CO2. After incubation, a solution of MTT (3-[4,5-dimethylthiazol-2-yl]-2, 5-diphenyl tetrazolium bromide) at a concentration (1 mg/mL) was added to each well. After incubation at 37 °C for 4 h, 100 µL of 0.04 M HCl in isopropanol was added to each well and mixed thoroughly to dissolve the dark blue crystals. The measurement of absorbance of the solution related to the number of live cells was conducted on a TECAN Spark Microplate Reader (TECAN, Männedorf, Switzerland) at 570 nm with a reference wavelength 600 nm. All samples were tested in three independent experiments. Results were normalized to the control.
Inhibitory concentrations (IC50) represent the concentrations of the tested samples required to inhibit 50% cell proliferation and were calculated from the mean values of data from wells.

[8] = tested on: pyoverdine secretion by P. aeruginosa PAO1; experiment: pyoverdine production (spectrofluorometric); type: cell-based, Pseudomonas aeruginosa; conditions: 0.5 mM complexes, 24 h, vs negative control (TSB medium with inoculated bacteria)
[9] = Staphylococcus aureus, ATCC6538P, S. aureus, planktonic cells, read-out: MIC
[10] = Escherichia coli, ATCC8739, planktonic cells, read-out: MIC
[11] = Pseudomonas aeruginosa, LESB58, P. aeruginosa LES B58, planktonic cells, read-out: MIC
[12] = Pseudomonas aeruginosa, read-out: MIC
[13] = P. aeruginosa LES B58, planktonic cells

SMILES	MIC ([1]; S. aureus, planktonic cells)	MIC ([2]; planktonic cells)	MIC [4, 13]	MIC [5]	further results
O=C(c1ccccn1)c1ccccn1 [dipyCO, dipyridin-2-ylmethanone]					MIC [1, 9]: > 1000 µM and > 184 µg/mL; MIC [2, 10]: > 1000 µM and > 184 µg/mL; inhibition at 1000 µM ([3]; Pseudomonas aeruginosa, PAO1, 1 mM, P. aeruginosa biofilm): 49%; MIC [4, 11]: > 1000 µM and > 184 µg/mL; MIC [5, 12]: > 1000 µM and > 184 µg/mL
O.O.O.O.O=[N+]([O-])[O-].O=[N+]([O-])[O-].[Mn+2] [Mn(NO3)2·4H2O]	> 1 mM and > 251 μg/ml	> 1 mM and > 251 μg/ml	> 1 mM and > 251 μg/ml	> 1 mM and > 251 μg/ml	
[H]/N=C(/N)N[C@H]1[C@H](O)[C@@H](O)[C@H](O[C@@H]2O[C@@H](C)[C@](O)(C=O)[C@H]2O[C@@H]2O[C@@H](CO)[C@H](O)[C@@H](O)[C@@H]2NC)[C@@H](N/C(N)=N\[H])[C@@H]1O [Streptomycin, reference compound]					MIC ([1]; Staphylococcus aureus, ATCC6538P): 125 µM; MIC [1, 9]: 73 µg/mL; MIC [2, 10]: 62.5 µM and 36 µg/mL; decrease of pyoverdine production [8]: 96%; MIC ([4]; Pseudomonas aeruginosa, LESB58): 125 µM; MIC [4, 11]: 73 µg/mL; MIC [5, 12]: 62.5 µM and 36 µg/mL
OCc1ccccn1 [pyOH, 2-hydroxymethylpyridyne]	> 1 mM and > 109 μg/ml	> 1 mM and > 109 μg/ml	> 1 mM and > 109 μg/ml	> 1 mM and > 109 μg/ml	
O=C(c1ccccn1)c1ccccn1.O=C(c1ccccn1)c1ccccn1.O=[N+]([O-])[O-].O=[N+]([O-])[O-].[Mn+2] [Mn-dipyCO-NO3]	> 1 mM and > 547 μg/ml	> 1 mM and > 547 μg/ml	> 1 mM and > 547 μg/ml	> 1 mM and > 547 μg/ml	Action on catalase activity [6]: attenuate the catalase activity; % Inhibit. Biofilm (0.25 mM) [3]: 21%; % Inhibit. Biofilm (0.5 mM) [3]: 36%

More lines, main results first:

MIC ([1]; S. aureus, planktonic cells)	MIC ([2]; planktonic cells)	MIC [4, 13]	MIC [5]	SMILES	further results
> 1 mM and > 346 μg/ml	> 1 mM and > 346 μg/ml	> 1 mM and > 346 μg/ml	> 1 mM and > 346 μg/ml	Cc1[nH]cnc1C=O.Cc1[nH]cnc1C=O.[Cl-].[Cl-].[Mn+2] [Mn-imCHO-Cl]	Action on catalase activity [6]: attenuate the catalase activity; % Inhibit. Biofilm (0.25 mM) [3]: 24%; % Inhibit. Biofilm (0.5 mM) [3]: 29%; IC50 [7]: > 1000 µM
> 1 mM and > 198 μg/ml	> 1 mM and > 198 μg/ml	> 1 mM and > 198 μg/ml	> 1 mM and > 198 μg/ml	O.O.O.O.[Cl][Mn][Cl] [MnCl2·4H2O]	
> 1 mM and > 169 μg/ml	> 1 mM and > 169 μg/ml	> 1 mM and > 169 μg/ml	> 1 mM and > 169 μg/ml	O.O=S(=O)([O-])[O-].[Mn+2] [MnSO4·H2O]	
> 1 mM and > 167 μg/ml	> 1 mM and > 167 μg/ml	> 1 mM and > 167 μg/ml	> 1 mM and > 167 μg/ml	O=C(O)c1cccnc1C(=O)O [pyCOOH, pyridine-2,3-dicarboxylic anion]	
> 1 mM and > 110 μg/ml	> 1 mM and > 110 μg/ml	> 1 mM and > 110 μg/ml	> 1 mM and > 110 μg/ml	Cc1nc[nH]c1C=O [imCHO, 5(4)-carbaldehyde-4(5)-methylimidazole]	
